According to US7691858B2, “Kinase inhibitors and methods of use thereof” (TargeGen, Inc., priority 2006, dated 2010):
Entries after “also recorded” stand apart in the source; their conditions may differ.

Assays:
Lck = target: T1, Lck (Homo sapiens, UniProt P06239); assay: Kinase panel screen; assay type: biochemical; settings: Compound I and ATP 10 μM
T1 construct: purchased Upstate USA or Invitrogen (contract screening service)

Abl = target: T2, Abl (Mus musculus, UniProt P00520); assay: Kinase panel screen; assay type: biochemical; settings: Compound I and ATP 10 μM
T2 construct: purchased Upstate USA or Invitrogen (commercial screening service)

PKCs = target: T3, PKCs (Homo sapiens, UniProt Q02156); assay: Kinase panel screen; assay type: biochemical; settings: Compound I and ATP 10 μM
T3 construct: purchased Upstate USA or Invitrogen (commercial screening service)

myocardial infarct = assay: Rodent model of acute myocardial infarct (LAD occlusion/reperfusion); assay type: in vivo, Sprague-Dawley rats
Description: A rodent model of acute myocardial infarct, in which the proximal left anterior descending coronary artery (LAD) is occluded for 60 min followed by reperfusion, was used to determine whether test agents reduced infarct size at 24 hours.
Myocardial infarcts were created in Sprague-Dawley rats (200-300 g body weight) by a 60 min occlusion of the LAD followed by LAD reperfusion. […] At 24 hr post-treatment, the ischemic zone (area at-risk, AAR) was delineated by re-ligation of the LAD followed by IV injection of alkali blue dye, after which hearts were sectioned along the short axis and stained using triphenyltetrazolium chloride to delineate viable from infarcted myocardium. Photographic images were then analyzed using morphometric software to calculate infarct area as a percent of the at-risk area.
Rodent MI model: All animal studies followed current “NIH Guidelines for the Use of Laboratory Animals” and were performed according to IACUC-approved protocols. Sprague-Dawley rats (275-300 g) were anesthetized using inhaled isoflurane after which chest walls were shaved and swabbed with iodine. Animals were then intubated and maintained on 2% isoflurane (delivered in 30% O2/70% N2), with optimal respiratory rate and stroke volumes set by a volume-controlled safety ventilator (Inspira Advanced Safety Ventilator; Harvard Apparatus, Holliston, Mass.). Body temperatures were maintained at 35-37° C. using heating pads and five-lead electrocardiograms established. For each animal, a left thoracotomy was performed at the third intercostal space, the heart was exposed and a suture snare tightened around the LAD at the point it appeared from beneath the left atrium. Ischemia was confirmed from blanching of the left ventricle (LV) as well as changes in ECG patterns. After the desired period of occlusion (60 min in the standard model), the suture snare was loosened to allow complete reperfusion (but retained in place using shallow sutures) and the chest closed in layers. […].
For infarct size determination, LAD occlusion was repeated on each animal 24 hr after the initial occlusion. The ischemic zone (area-at-risk or AAR) was then delineated by i.v. injection of Evans blue dye (5 ml of a 10% saline solution containing 100 U/ml sodium heparin). The heart was explanted, atria and right ventricle trimmed free, and the LV (septal and free walls) frozen at −20° C. to induce rigor. After thawing on ice, the LV was subdivided into six 2 mm thick sections along the short axis using a metal form to guide dissection. Heart sections were stained for 20 min in 37° C. triphenyltetrazolium chloride (TTC, 2% in 0.04 M K2HPO4/0.17 M sucrose) to delineate viable from infarcted myocardium, fixed for 20 min in 10% formalin, then rinsed in saline. For each section, photographs were taken of both anterior and posterior surfaces and these images analyzed (by personnel blinded as to treatment identity) using a morphometric software package (Image Pro Plus; Media Cybernetics, Silver Spring, Md.). The following areas were calculated, based on their differing pixel densities: non-ischemic zone (Evans blue-stained), viable-but-ischemic zone (free of Evans blue but TTC-stained), and infarct-within-ischemic zone (free of both Evans blue and TTC stain). Area values for anterior and posterior views were averaged, and these values used to calculate the following AAR=Viable-but-ischemic Area+Infarct Area Equation 1 Total LV Area=AAR+Non-ischemic Area Equation 2

Lyn = target: T4, Lyn (Mus musculus, UniProt P25911); assay: Kinase panel screen; assay type: biochemical; settings: Compound I and ATP 10 μM
T4 construct: purchased Upstate USA or Invitrogen (commercial screening service)

IGF-1R = target: T5, IGF-1R (Homo sapiens, UniProt P08069); assay: Kinase panel screen; assay type: biochemical; settings: Compound I and ATP 10 μM
T5 construct: purchased Upstate USA or Invitrogen (commercial screening service)

VEGF-induced edema = assay: Miles assay, VEGF as agonist; assay type: in vivo, Sprague-Dawley rats
Description: A rodent model of vascular edema, the Miles assay, was used to screen compounds for their ability to inhibit VEGF-induced edema. […] Sprague-Dawley rats were first injected IV with vehicle alone or test agent, followed by IV injection of Evans blue dye, followed by intradermal injections of saline and VEGF (200 ng/injection site) along both shaved flanks.

MINK = target: T6, MINK (Homo sapiens, UniProt Q8N4C8); assay: Kinase panel screen; assay type: biochemical; settings: Compound I and ATP 10 μM
T6 construct: purchased Upstate USA or Invitrogen (contract screening service)

MEK1 = target: T7, MEK1 (Homo sapiens, UniProt Q02750); assay: Kinase panel screen; assay type: biochemical; settings: Compound I and ATP 10 μM
T7 construct: purchased Upstate USA or Invitrogen (commercial screening service)

MAPK1 = target: T8, MAPK1 (Homo sapiens, UniProt P27361); assay: Kinase panel screen; assay type: biochemical; settings: Compound I and ATP 10 μM
T8 construct: purchased Upstate USA or Invitrogen (commercial screening service)

TAK1 = target: T9, TAK1 (Homo sapiens, UniProt O43318); assay: Kinase panel screen; assay type: biochemical; settings: Compound I and ATP 10 μM
T9 construct: purchased Upstate USA or Invitrogen (contract screening service)

CHK1 = CHK1 (Homo sapiens, UniProt O14757); assay: Kinase panel screen; assay type: biochemical; settings: Compound I and ATP 10 μM
PKA = PKA (Homo sapiens, UniProt P17612); assay: Kinase panel screen; assay type: biochemical; settings: Compound I and ATP 10 μM
PDK1 = target: T10, PDK1 (Homo sapiens, UniProt O15530); assay: Kinase panel screen; assay type: biochemical; settings: Compound I and ATP 10 μM
T10 construct: purchased Upstate USA or Invitrogen (commercial screening service)

Plk3 = target: T11, Plk3 (Homo sapiens, UniProt Q9H4B4); assay: Kinase panel screen; assay type: biochemical; settings: Compound I and ATP 10 μM
T11 construct: purchased Upstate USA or Invitrogen (contract screening service)

MST2 = target: T12, MST2 (Homo sapiens, UniProt Q13188); assay: Kinase panel screen; assay type: biochemical; settings: Compound I and ATP 10 μM
T12 construct: purchased Upstate USA or Invitrogen (commercial screening service)

DDR2 = target: T13, DDR2 (Homo sapiens, UniProt Q16832); assay: Kinase panel screen; assay type: biochemical; settings: Compound I and ATP 10 μM
T13 construct: purchased Upstate USA or Invitrogen (commercial screening service)

ZIPK = ZIPK (Homo sapiens, UniProt O43293); assay: Kinase panel screen; assay type: biochemical; settings: Compound I and ATP 10 μM
CDK6 = target: T14, CDK6 (Homo sapiens, UniProt Q00534); assay: Kinase panel screen; assay type: biochemical; settings: Compound I and ATP 10 μM
T14 construct: purchased Upstate USA or Invitrogen (contract screening service)

CDK2 = target: T15, CDK2 (Homo sapiens, UniProt P24941); assay: Kinase panel screen; assay type: biochemical; settings: Compound I and ATP 10 μM
T15 construct: purchased Upstate USA or Invitrogen (commercial screening service)

EphB2 = target: T16, EphB2 (Homo sapiens, UniProt P29323); assay: Kinase panel screen; assay type: biochemical; settings: Compound I and ATP 10 μM
T16 construct: purchased Upstate USA or Invitrogen (commercial screening service)

Hck = target: T17, Hck (Homo sapiens, UniProt P08631); assay: Kinase panel screen; assay type: biochemical; settings: Compound I and ATP 10 μM
T17 construct: purchased Upstate USA or Invitrogen (commercial screening service)

T3 sequence (Q02156 whole entry): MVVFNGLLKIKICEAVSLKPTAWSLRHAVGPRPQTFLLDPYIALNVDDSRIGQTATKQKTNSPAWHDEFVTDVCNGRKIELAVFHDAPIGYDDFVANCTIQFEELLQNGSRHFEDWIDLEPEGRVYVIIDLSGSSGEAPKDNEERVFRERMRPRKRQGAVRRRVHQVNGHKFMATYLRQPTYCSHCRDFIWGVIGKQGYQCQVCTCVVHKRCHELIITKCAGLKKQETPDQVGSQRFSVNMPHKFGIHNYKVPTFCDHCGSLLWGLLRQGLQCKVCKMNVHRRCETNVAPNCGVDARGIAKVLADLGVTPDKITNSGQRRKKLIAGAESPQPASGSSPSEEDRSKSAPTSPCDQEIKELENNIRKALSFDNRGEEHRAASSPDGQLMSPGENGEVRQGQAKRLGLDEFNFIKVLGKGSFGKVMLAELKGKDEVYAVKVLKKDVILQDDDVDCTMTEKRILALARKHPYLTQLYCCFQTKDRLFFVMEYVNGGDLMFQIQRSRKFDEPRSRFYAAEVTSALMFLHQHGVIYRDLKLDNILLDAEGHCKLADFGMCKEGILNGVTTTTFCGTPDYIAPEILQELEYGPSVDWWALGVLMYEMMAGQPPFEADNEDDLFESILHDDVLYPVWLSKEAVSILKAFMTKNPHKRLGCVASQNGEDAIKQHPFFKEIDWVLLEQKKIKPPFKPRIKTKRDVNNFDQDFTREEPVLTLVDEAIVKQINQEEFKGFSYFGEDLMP
T14 sequence (Q00534 whole entry): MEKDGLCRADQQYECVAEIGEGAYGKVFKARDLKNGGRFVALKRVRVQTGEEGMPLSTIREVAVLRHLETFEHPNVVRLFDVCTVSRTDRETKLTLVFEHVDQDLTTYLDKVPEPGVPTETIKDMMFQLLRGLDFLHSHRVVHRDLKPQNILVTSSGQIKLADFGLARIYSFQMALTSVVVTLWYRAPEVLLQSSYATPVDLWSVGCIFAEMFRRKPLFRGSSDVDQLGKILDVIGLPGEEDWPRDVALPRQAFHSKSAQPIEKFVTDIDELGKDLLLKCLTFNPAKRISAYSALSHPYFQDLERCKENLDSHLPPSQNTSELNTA
T14 sequence (P30281 whole entry partner): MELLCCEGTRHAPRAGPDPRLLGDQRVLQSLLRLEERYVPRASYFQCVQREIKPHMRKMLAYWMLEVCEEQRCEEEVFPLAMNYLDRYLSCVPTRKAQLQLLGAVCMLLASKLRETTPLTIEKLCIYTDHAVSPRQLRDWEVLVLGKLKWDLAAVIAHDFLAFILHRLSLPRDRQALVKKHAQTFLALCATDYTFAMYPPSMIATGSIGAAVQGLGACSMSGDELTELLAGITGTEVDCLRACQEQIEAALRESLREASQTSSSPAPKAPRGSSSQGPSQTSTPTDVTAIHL
CHK1, sequence (O14757 whole entry): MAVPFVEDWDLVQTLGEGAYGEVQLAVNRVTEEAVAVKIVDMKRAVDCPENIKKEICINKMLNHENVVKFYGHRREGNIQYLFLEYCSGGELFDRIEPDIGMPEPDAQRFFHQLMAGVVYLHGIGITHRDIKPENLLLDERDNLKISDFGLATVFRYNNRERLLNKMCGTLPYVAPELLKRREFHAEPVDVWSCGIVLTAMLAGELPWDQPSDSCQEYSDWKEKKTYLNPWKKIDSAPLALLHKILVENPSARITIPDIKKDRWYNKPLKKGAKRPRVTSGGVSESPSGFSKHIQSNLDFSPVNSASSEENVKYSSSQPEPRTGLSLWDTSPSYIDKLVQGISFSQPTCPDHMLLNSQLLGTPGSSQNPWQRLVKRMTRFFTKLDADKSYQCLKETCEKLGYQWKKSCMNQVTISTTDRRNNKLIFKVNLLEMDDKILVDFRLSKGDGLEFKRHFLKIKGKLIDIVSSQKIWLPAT
T10 sequence (O15530 whole entry): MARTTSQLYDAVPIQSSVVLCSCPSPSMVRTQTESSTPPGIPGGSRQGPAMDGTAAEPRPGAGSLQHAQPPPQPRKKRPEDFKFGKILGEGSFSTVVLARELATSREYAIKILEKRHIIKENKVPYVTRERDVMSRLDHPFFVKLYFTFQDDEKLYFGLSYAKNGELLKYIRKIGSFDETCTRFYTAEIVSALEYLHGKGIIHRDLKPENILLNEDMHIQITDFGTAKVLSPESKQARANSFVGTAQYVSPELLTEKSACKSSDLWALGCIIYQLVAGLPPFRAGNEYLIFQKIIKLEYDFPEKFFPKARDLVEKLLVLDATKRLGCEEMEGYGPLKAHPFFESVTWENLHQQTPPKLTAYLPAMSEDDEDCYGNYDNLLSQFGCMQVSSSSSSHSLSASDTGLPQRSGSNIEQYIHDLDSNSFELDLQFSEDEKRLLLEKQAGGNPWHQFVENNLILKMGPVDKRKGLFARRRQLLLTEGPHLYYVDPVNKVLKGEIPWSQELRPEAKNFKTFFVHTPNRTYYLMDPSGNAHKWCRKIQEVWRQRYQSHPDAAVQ
T6 sequence (Q8N4C8 whole entry): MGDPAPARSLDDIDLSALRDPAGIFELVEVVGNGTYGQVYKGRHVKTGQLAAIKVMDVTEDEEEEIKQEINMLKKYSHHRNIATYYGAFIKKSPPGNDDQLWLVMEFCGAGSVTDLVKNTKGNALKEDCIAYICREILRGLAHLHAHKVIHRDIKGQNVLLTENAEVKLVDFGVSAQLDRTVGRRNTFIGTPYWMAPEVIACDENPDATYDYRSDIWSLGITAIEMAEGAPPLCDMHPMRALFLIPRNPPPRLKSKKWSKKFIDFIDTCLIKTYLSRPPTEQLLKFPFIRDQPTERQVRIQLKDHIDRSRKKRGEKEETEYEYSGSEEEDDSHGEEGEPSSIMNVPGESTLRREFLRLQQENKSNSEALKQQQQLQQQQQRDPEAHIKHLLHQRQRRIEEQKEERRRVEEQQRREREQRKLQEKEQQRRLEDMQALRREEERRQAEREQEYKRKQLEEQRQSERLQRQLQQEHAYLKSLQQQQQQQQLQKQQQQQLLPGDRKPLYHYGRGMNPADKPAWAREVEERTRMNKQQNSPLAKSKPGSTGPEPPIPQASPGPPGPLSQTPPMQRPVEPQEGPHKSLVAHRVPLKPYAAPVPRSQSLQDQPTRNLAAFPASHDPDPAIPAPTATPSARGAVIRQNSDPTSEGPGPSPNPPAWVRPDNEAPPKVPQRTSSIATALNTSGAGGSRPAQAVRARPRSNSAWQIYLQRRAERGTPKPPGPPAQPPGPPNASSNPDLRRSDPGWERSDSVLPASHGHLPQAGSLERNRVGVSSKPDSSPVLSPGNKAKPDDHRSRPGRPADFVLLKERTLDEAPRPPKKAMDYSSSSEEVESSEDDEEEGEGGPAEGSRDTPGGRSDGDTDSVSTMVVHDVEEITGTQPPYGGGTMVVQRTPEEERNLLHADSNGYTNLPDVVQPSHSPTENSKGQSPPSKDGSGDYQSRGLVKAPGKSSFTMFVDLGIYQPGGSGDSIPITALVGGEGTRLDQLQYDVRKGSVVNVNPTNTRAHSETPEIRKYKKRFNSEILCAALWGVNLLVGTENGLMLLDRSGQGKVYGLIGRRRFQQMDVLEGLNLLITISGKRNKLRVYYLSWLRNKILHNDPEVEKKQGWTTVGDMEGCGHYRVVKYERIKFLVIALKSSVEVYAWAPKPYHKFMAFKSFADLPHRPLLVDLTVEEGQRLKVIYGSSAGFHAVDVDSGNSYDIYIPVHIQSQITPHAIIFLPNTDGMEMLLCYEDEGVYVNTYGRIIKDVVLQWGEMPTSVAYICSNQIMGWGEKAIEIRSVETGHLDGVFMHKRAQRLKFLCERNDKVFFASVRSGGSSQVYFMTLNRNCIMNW
T13 sequence (Q16832 22-855): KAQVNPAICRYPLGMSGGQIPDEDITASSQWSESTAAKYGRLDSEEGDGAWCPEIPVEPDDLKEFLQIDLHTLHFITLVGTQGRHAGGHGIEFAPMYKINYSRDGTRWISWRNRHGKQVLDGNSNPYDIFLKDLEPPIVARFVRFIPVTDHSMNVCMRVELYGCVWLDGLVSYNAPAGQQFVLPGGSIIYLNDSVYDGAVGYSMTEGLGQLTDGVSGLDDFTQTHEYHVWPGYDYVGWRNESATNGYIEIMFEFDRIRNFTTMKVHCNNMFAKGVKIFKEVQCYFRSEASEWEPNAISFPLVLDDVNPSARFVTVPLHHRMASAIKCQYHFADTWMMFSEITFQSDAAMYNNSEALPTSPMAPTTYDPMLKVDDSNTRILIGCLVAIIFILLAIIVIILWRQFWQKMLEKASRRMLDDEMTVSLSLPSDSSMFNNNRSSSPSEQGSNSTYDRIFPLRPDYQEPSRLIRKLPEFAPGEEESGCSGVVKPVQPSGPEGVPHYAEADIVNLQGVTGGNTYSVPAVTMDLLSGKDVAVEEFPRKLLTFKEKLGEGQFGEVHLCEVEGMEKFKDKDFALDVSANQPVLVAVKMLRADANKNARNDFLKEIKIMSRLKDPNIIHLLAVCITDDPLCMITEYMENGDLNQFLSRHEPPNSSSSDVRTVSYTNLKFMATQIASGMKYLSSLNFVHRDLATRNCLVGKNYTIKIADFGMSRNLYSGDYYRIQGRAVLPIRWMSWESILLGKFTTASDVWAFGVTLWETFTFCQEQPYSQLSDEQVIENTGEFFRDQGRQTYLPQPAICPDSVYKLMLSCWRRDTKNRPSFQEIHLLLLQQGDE
T12 sequence (Q13188 whole entry): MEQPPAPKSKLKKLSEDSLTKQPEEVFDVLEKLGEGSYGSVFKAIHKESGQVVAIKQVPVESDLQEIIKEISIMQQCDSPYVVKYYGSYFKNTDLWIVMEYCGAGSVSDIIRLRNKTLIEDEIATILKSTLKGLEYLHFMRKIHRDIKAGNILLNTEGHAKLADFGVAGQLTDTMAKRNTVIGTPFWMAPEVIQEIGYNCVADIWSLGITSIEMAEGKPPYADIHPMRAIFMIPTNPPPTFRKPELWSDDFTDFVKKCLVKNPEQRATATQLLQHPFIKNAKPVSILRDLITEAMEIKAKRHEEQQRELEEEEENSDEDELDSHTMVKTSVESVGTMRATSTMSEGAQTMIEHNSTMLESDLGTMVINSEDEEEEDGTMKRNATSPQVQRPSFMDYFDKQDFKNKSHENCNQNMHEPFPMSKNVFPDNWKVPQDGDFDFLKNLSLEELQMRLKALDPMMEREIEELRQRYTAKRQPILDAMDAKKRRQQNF

Nc1nc(N)c2nc(-c3cccc(O)c3)c(-c3cccc(O)c3)nc2n1 [Compound I, 6,7-bis-(3-hydroxyphenyl)-pteridine-2,4-diamine]
Percent Control, Lck (Lck): 52%
Percent Control, Abl (m) (Abl): 66%
Percent Control, PKCs (PKCs): 69%
reductions in infarct development vs. vehicle-treated controls (myocardial infarct; 0.1 mg/kg, delivery between 0 and 3 h post-reperfusion (FIG. 6b)): 58-67%
reduction in infarct size vs. vehicle controls (myocardial infarct; rats, 0.3 mg/kg IV bolus 60 min into reperfusion, 24 hr, N=8): 43%
infarct area as percentage of ischemic territory (myocardial infarct; rats, 0.3 mg/kg IV bolus 60 min into reperfusion, mean±SD (±9), vehicle 62%±7): 35%
improvement in fractional shortening (myocardial infarct; single 0.5 mg/kg bolus one hour post-reperfusion, 4 weeks): 24%
percent left ventricular long axis fractional shortening (myocardial infarct; single 0.5 mg/kg bolus one hour post-reperfusion, echocardiography 4 weeks, mean±SEM, vehicle 27.2±1.9): 33.6±2.0%
reduction of infarct size (myocardial infarct; single i.v. bolus 60 mm post-reperfusion): ≥ 40%
Percent Control, Lyn (m) (Lyn): 41%
Percent Control, IGF-1R (IGF-1R): 104%
time for which a single i.v. administration reduced edema formation (VEGF-induced edema; Miles assay, varied time between compound and agonist challenge, data not shown): at least 4 hours
VEGF-induced vascular permeability / edema formation (VEGF-induced edema; rats, Compound I pretreatment (1 mg/kg in FIG. 4)): inhibited; also recorded: reduced edema formation
Percent Control, MINK (MINK): 88%
Percent Control, MEK1 (MEK1): 94%
Percent Control, MAPK1 (MAPK1): 97%
Percent Control, TAK1 (TAK1): 65%
Percent Control, CHK1 (CHK1): 100%
Percent Control, PKA (PKA): 93%
Percent Control, PDK1 (PDK1): 90%
Percent Control, Plk3 (Plk3): 97%
Percent Control, MST2 (MST2): 91%
Percent Control, DDR2 (DDR2): 88%
Percent Control, ZIPK (ZIPK): 112%
Percent Control, CDK6 (CDK6): 83%
Percent Control, CDK2 (first entry) (CDK2): 67%
Percent Control, EphB2 (EphB2): 56%
Percent Control, Hck (Hck): 67%
